Assay results published in US20250000864A1, “GONADOTROPIN-RELEASING HORMONE ANTAGONIST, AND PREPARATION METHOD THEREFOR AND USE THEREOF” (SHANDONG LUYE PHARMACEUTICAL CO., LTD., priority 2021, published 2025).
Like-named read-outs stand apart in the source and are kept apart here. Blank lines part the entries; values can stand above or below the molecule they belong to.

Key:
human GnRHR [1] = target: T1, human GnRHR (Homo sapiens (Human), UniProt P30968); test: In vitro binding screening ([125I][D-Trp6]-LH-RH displacement, Chem-1 cell membranes)
T1 sequence (P30968 whole entry): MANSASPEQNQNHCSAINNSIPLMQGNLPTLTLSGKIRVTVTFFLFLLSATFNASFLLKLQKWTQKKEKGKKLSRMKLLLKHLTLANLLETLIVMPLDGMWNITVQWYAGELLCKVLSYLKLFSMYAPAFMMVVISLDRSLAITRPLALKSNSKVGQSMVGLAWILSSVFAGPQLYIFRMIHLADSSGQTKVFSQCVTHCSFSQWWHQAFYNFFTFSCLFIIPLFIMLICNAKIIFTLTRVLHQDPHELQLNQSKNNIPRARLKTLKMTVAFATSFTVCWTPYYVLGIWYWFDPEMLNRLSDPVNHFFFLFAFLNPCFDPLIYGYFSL
Experimental: [D-Trp6]-LH-RH, PerkinElmer; [D-Trp6]-LH-RH, Abcam.
Equipment: MicroBeta2 LumiJET system, PerkinElmer.
Method: Chem-1 cell membranes stably expressing human GnRHR were resuspended in HEPES at pH 7.4. […] [D-Trp6]-LH-RH was used in the non-specific binding assay. Cell membranes were collected by filtration under vacuum and washed before liquid scintillation. The binding IC50 and IC90 of the compounds were calculated using Prism.

[2] = Pharmacokinetics in SD rats (i.v. and i.g.); format: in vivo; conditions: for bioavailability: i.g 12 mg/kg vs i.v 1 mg/kg, read-out: F (absolute bioavailability)
Experimental: (§1) Instrument: water purification equipment, Millipore; electronic balance, METTLER TOLEDO; high-speed benchtop centrifuge, Thermo; water bath thermostatic oscillator, Shanghai Yiheng Technical Co., Ltd.; vortex oscillator, Thermo; LC-MS/MS, AB SCIEX.
(§2) Method: all compounds were formulated in DMSO and 20% solutol. In the pharmacokinetic experiment, the administration dose for the intravenous group (i.v) was 1 mg/kg, and the administration dose for the intragastric group (i.g) was 12 mg/kg, each group containing 3 rats. Blood was collected from the orbit of the rats before (0 h) the administration and at set time points after administration. In the tissue distribution experiment, the rats were subjected to intragastric administration at a dose of 12 mg/kg. […] The […] in a heparinized EP tube and centrifuged at 13,500 rpm for 10 min to isolate the plasma. The pituitary was homogenized with water in a certain proportion. The plasma and pituitary homogenates were pre-treated and then analyzed by LC-MS/MS to determine the concentration of the test substances in the plasma and the pituitary. The plasma drug concentration data were processed in a non-compartmental model using WinNonlin™ Version 6.3 (Pharsight, Mountain View, CA) pharmacokinetic software.

[3] = target: human hERG potassium channel (Homo sapiens (Human), UniProt Q12809); test: hERG test (QPatch automated patch clamp, CHO cells); format: cell-based; conditions: for Inhibitory activity on the human hERG potassium channel compared with Relugolix: in words, vs Relugolix
human hERG potassium channel, sequence (Q12809 whole entry): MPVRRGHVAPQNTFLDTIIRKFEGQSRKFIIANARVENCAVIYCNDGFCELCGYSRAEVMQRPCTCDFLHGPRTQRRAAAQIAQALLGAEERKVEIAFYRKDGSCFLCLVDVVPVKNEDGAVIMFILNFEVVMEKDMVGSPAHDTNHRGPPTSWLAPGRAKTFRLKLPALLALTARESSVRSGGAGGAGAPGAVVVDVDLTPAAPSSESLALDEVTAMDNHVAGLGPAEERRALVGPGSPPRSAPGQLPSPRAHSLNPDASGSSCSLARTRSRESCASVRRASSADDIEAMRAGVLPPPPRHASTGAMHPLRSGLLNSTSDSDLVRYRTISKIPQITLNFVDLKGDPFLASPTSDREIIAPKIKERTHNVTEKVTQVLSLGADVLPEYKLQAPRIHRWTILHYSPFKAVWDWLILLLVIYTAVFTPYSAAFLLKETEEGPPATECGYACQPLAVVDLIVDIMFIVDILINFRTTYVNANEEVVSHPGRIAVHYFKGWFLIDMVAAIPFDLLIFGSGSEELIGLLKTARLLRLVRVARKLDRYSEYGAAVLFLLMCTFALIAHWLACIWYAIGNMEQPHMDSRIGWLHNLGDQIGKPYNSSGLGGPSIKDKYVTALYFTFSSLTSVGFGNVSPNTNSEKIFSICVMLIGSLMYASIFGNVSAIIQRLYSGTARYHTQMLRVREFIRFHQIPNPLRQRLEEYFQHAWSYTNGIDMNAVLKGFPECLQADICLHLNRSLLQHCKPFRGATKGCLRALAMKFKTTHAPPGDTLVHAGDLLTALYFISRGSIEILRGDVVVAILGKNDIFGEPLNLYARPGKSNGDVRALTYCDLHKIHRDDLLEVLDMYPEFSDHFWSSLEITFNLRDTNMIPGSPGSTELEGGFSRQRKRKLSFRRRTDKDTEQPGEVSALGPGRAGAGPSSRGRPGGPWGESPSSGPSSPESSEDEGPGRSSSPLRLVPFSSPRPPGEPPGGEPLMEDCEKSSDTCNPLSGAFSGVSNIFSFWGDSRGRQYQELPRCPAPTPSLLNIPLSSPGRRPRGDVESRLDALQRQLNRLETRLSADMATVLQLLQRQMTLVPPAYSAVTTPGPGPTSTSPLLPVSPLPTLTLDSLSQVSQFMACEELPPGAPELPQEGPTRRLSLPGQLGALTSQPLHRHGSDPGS
Experimental: Cell: CHO cells stably expressing a human hERG potassium channel (WuXi AppTec (Shanghai) Co., Ltd.) Reagent: physiological solution (pH=7.4): 140 mM NaCl, 4 mM KCl, 2 mM CaCl2), 1 mM MgCl2, 5 mM Glucose, 10 mM HEPES, Osmolarity: about 298 mOsm; external solution (pH=7.4): 80 mM NaCl, 4 mM KCl, 2 mM CaCl2), 1 mM MgCl2, 5 mM Glucose, 60 mM NMDG, 10 mM HEPES, Osmolarity: about 289 mOsm; internal solution (pH=7.4): 10 mM NaCl, 10 mM KCl, 110 mM KF, 10 mM HEPES, EGTA: […], Osmolarity: about 280 mOsm.
Equipment: QPatch high-throughput automated patch clamp system, Sophion.
Method: CHO cells stably expressing a human hERG potassium channel were digested with TrypLE and resuspended in a physiological solution for later use. The single-cell high-impedance sealing and whole-cell mode formation processes were automatically completed by Qpatch. The clamping voltage for the cells was −80 mV. Then a voltage of −50 mV was applied for 80 ms to subtract (current) leakage, and a voltage of +20 mV was applied for 4800 ms to open the hERG channel. The voltage was then reduced to −50 mV and maintained for 5000 ms. This process was used for data collection and analysis. Finally, the voltage was returned to the clamping voltage (−80 mV, 1000 ms). This process was repeated every 20,000 ms. 40 μL of solvent control (external solution+DMSO) was added first, and the test was performed for […] to collect baseline data. Then, 40 μL of each of the test compounds was added at various concentrations, and the test was performed for no less than […]. The compounds were each dissolved in DMSO, with test concentrations being 0.30 μM, 1.00 μM, 3.00 μM, 10.00 μM, and 30.00 μM. The IC50 data for the hERG test were obtained by analyzing using DataControl, Excel2013, and Prism.

[4] = Pituitary tissue distribution in SD rats after intragastric administration; format: in vivo; parameters: Plasma concentration / Pituitary concentration: unit not given here; conditions: i.g 12 mg/kg; for Concentration in the pituitary relative to Relugolix: vs Relugolix; for Concentration in the pituitary relative to compound 2A: vs compound 2A
Experimental: as §1, §2

[5] = Caco-2 two-way permeability and efflux; format: in vitro ADME; conditions: human; for efflux ratio at 120 min: Caco-2
Experimental: (§3) Instrument: water purification equipment, ELGA LabWate; biosafety cabinet, NUAIRE; thermostatic CO2 incubator, Thermo; microplate reader, PerkinElmer; LC-MS/MS, AB SCIEX.
(§4) Method: A Caco-2 monolayer cell model was used to determine the two-way permeability of the test substances and evaluate whether the test substances were transported by the efflux of a transporter. In the experiment, Caco-2 cells were seeded into a 96-well cell culture plate and cultured for 28 consecutive days for transport assay. The test substances were each administered on two sides. After being incubated for 120 min, the samples at the apical end A, at the basal end B, and with cell lysis were collected and quantitatively determined for the content of the test substances by using a liquid chromatography-tandem mass spectrometry (LC/MS/MS) method. The apparent permeability coefficient (Papp) in the direction from the apical end to the basal end (A-B) and in the direction from the basal end to the apical end (B-A) and the efflux ratio were calculated from the concentrations of the test substances.

human GnRHR [6] = target: T1, human GnRHR; test: In vitro antagonistic activity screening (FLIPR calcium fluorescence, Leuprolide acetate stimulation); format: cell-based; conditions: HEK293 cells stably expressing human GnRHR
Experimental: Cell: HEK293 cells stably expressing human GnRHR (WuXi AppTec (Shanghai) Co., Ltd.) Equipment: 384-well plate, Greiner; Vi-cell XR Cell Viability Analyzer, Beckman Coulter; incubator, Thermo.
Method: HEK293 cells stably expressing human GnRHR were seeded into a 384-well plate at a density of 20,000/well. Fluo-4 Direct™ No-wash Loading Buffer (Invitrogen) was added to each well the next day, and then the plate was put back into an incubator, incubated at 37° C. for 50 min, and then incubated at room temperature for 10 min. Test compounds were formulated in DMSO. […] Fluorescence values were determined using a FLIPR Tetra high throughput real-time fluorescence detection and assay system. Then 10 μL of Leuprolide acetate was added, and fluorescence values were determined. IC50 and IC90 of the compounds were calculated using Prism.

[7] = Metabolic stability in human liver microsomes; format: in vitro ADME
Experimental: (§5) Liver Microsome: Rat Liver Microsome and Human Liver Microsome Reagent: NADPH, Roche Diagnostics Gmbh; ACN, Merck Chemical; Tolbutamide, Sigma. Instrument: water purification equipment, Millipore; electronic balance, METTLER TOLEDO; high-speed benchtop centrifuge, Thermo; water bath thermostatic oscillator, Shanghai Yiheng Technical Co., Ltd.; vortex oscillator, Thermo; LC-MS/MS, AB SCIEX. Method: the metabolic stability of test substances was evaluated by using SD rat and human liver microsomes. The test substances were incubated with liver microsomes from different species by using NADPH under a water bath at 37° C. A cold acetonitrile solution containing a Tolbutamide internal standard substance was added at a specified time point to terminate the reaction. The samples were pre-treated and then subjected to semi-quantitative analysis by LC-MS/MS. The retention times of the analytes and Tolbutamide internal standard, the acquisition of chromatograms, and the integration of chromatograms were processed using software Analyst (A Sciex, Framingham, Massachusetts, USA). The in vitro elimination rate constant Ke of the samples was obtained by converting the ratio of the peak area of the samples to the peak area of the internal standard into the residual percentage, and the in vitro clearance rate and the half-life of the test samples were calculated.

[8] = Metabolic stability in rat liver microsomes; format: in vitro ADME, SD rat; conditions: Rat liver microsomes
Experimental: as §5

Caco-2 cells = test: Caco-2 two-way permeability and efflux; format: in vitro ADME
Experimental: as §3, §4

[9] = male, Sprague-Dawley (SD), rat, plasma, iv, i.v 1 mg/kg
[10] = male, Sprague-Dawley (SD), rat, plasma, po, i.g 12 mg/kg
[11] = intragastric group, vs Relugolix
[12] = intragastric group, vs compound 2A

- IC90 (human GnRHR [1]): 13.2 nM
- IC50 (human GnRHR [1]; Chem-1 cell membranes, 0.05 nM [125I]-[D-Trp6]-LH-RH): 0.87 nM
- AUC(0-t) [2, 9]: 487 ± 150 ng·h/mL
- C0 [2, 9]: 521 ± 322 ng/mL
- MRT last [2, 9]: 4.14 ± 1.83 h
- half-life [2, 9]: 6.64 ± 3.1 h
- AUC(0-t) [2, 10]: 370 ± 109 ng·h/mL
- Cmax [2, 10]: 69.9 ± 15.1 ng/mL
- MRT last [2, 10]: 9.2 ± 2.3 h
- half-life [2, 10]: 18 ± 15.9 h
- bioavailability ([2]; male, Sprague-Dawley (SD), rat, plasma, po): 6.33%
- Tmax ([2]; male, Sprague-Dawley (SD), rat, plasma, po, i.g 12 mg/kg, read-out: Tmax): 0.25 h
- Pituitary concentration ([4]; 1 h): 280 ± 80
- Plasma concentration ([4]; 1 h): 32.2 ± 18.0
- Pituitary concentration ([4]; 4 h): 279 ± 70
- Plasma concentration ([4]; 4 h): 13.3 ± 5.1
- Pituitary concentration ([4]; 12 h): 333 ± 90
- Plasma concentration ([4]; 12 h): 5.59 ± 1.55
- Kp at 1 h ([4]; male, Sprague-Dawley (SD), rat, pituitary/plasma, oral, 1 h): 8.7
- Kp at 4 h ([4]; male, Sprague-Dawley (SD), rat, pituitary/plasma, oral, 4 h): 21
- Kp at 12 h ([4]; male, Sprague-Dawley (SD), rat, pituitary/plasma, oral, 12 h): 59.6
- efflux ratio at 120 min ([5]; read-out: Efflux ratio): 1180
- Papp A→B at 120 min ([5]; Caco-2, 120 min incubation): 0.00816 ×10⁻⁶ cm/s
- Papp B→A at 120 min ([5]; Caco-2, 120 min incubation): 9.65 ×10⁻⁶ cm/s
- IC50 (human GnRHR [6]; read-out: Functional IC50): 1.84 nM
- IC90 (human GnRHR [6]; read-out: Functional IC90): 8.19 nM
SMILES: CCNC(=O)Nc1ccc(-c2sc3c(c2CN(C)C)c(=O)n(-c2ccc(OC)nn2)c(=O)n3Cc2c(F)cccc2F)cc1 [Compound 2A]
- IC50 ([3]; CHO cells stably expressing human hERG potassium channel): 6070 nM
- Inhibitory activity on the human hERG potassium channel compared with Relugolix [3]: equal to or less than that of Relugolix

- CLint scaled [7]: 4.86 mL/min/kg
- half-life [7]: 4.28 h
- Residual content at 60 min ([7]; NADPH, 37° C.): 83.8%
- microsomal CLint ([7]; read-out: CLint(mic)): 5.4 µL/min/mg
- AUClast relative to Relugolix [2, 11]: 2.45 fold
- Absolute bioavailability relative to Relugolix [2, 11]: 3.47 fold
- Cmax relative to Relugolix [2, 11]: 3.63 fold
- AUClast relative to compound 2A [2, 12]: 0.96 fold
- Absolute bioavailability relative to compound 2A [2, 12]: 3.14 fold
- Cmax relative to compound 2A [2, 12]: 1.12 fold
- bioavailability ([2]; male, rat, plasma, oral): 19.9%
- Residual content at 60 min ([8]; NADPH, 37° C.): 61.0%
- CLint scaled ([8]; SD): 28.4 mL/min/kg
- half-life ([8]; SD): 1.46 h
- microsomal CLint ([8]; SD, read-out: CLint(mic)): 15.8 µL/min/mg
- Pituitary concentration ([4]; 1 h): 2250 ± 474
- Pituitary/plasma ([4]; 1 h): 56.9
- Plasma concentration ([4]; 1 h): 39.5 ± 14.0
- Concentration in the pituitary relative to Relugolix ([4]; 1 h): 2.38 fold
- Concentration in the pituitary relative to compound 2A ([4]; 1 h): 8.04 fold
- Pituitary concentration ([4]; 4 h): 1841 ± 636
- Pituitary/plasma ([4]; 4 h): 80.8
- Plasma concentration ([4]; 4 h): 22.8 ± 2.5
- Concentration in the pituitary relative to Relugolix ([4]; 4 h): 1.48 fold
- Concentration in the pituitary relative to compound 2A ([4]; 4 h): 6.60 fold
- Pituitary concentration ([4]; 12 h): 1254 ± 494
- Pituitary/plasma ([4]; 12 h): 129
- Plasma concentration ([4]; 12 h): 9.70 ± 3.10
- Concentration in the pituitary relative to Relugolix ([4]; 12 h): 2.46 fold
- Concentration in the pituitary relative to compound 2A ([4]; 12 h): 3.77 fold
- efflux ratio at 120 min [5]: ~6
- Efflux ratio (Caco-2 cells; Caco-2): 294
- Mean Papp A to B (Caco-2 cells; Caco-2, 120 min incubation): 0.0142 10^−6 cm/s
- Mean Papp B to A (Caco-2 cells; Caco-2, 120 min incubation): 4.19 10^−6 cm/s
SMILES: CCNC(=O)Nc1ccc(-c2sc3c(c2CN(C)C)c(=O)n(-c2ccc(OC)nn2)c(=O)n3Cc2c(F)cccc2F)cn1 [Compound 2]
- Inhibitory activity on the human hERG potassium channel compared with Relugolix [3]: equal to or less than that of Relugolix
